Values of other authors as cited in US11384062B2 (CombiPhos Catalysts, Inc., priority 2017, dated 2022).
Where two headings read alike, the source gives them in different places.

Legend:
[1] = dosed IV to bile duct cannulated rats; cited from earlier work
PARP = settings: read-out: EC50, inhibition of PARP activity; whole cell assay; cited from earlier work
[2] = tested on: cancer cells with mutant BRCA-1 and BRCA-2; settings: read-out: CC50, inhibition of proliferation; cited from earlier work
[3] = tested on: BRCA-1 deficient cancer xenograft; settings: cited from earlier work
[4] = tested on: CAPAN-1 pancreatic cancer cell xenograft; settings: 80 mg/kg qd, oral dosing, for two, three, or four weeks; cited from earlier work
[5] = tested on: human tumor xenografts, p53 wild type and p53 mutant; settings: variety of human tumor xenografts; cited from earlier work
recurrent ovarian cancer = settings: cited from earlier work

Row | SMILES | recovered radioactivity as the parent drug [1] | EC50 (PARP) | CC50 [2] | tumor growth ([3]; 80 mg/kg qd, oral dosing, after one or two weeks of treatment) | tumor growth ([3]; after four week treatment) | tumor growth ([3]; continuous daily dosing for three or four weeks) | tumor growth inhibition [4] | effect on radiation response [5] | median PFS (recurrent ovarian cancer; germline BRCA mutant patients) | median PFS (recurrent ovarian cancer; non-gBRCAmut cohort, HRD-positive tumors) | median PFS (recurrent ovarian cancer; overall non-germline BRCA mutant cohort) | discontinuation rate (recurrent ovarian cancer; patients) | treatment-emergent grade 3/4 adverse event: anemia (recurrent ovarian cancer; patients) | treatment-emergent grade 3/4 adverse event: neutropenia (recurrent ovarian cancer; patients) | treatment-emergent grade 3/4 adverse event: thrombocytopenia (recurrent ovarian cancer; patients)
1 | NC(=O)c1cccc2cn(-c3ccc([C@@H]4CCCNC4)cc3)nc12 [[^14C]-niraparib] | 45% |  |  |  |  |  |  |  |  |  |  |  |  |  | 
2 | NC(=O)c1cccc2cn(-c3ccc([C@@H]4CCCNC4)cc3)nc12 [niraparib, (S)-2-(4-(piperidin-3-yl)phenyl)-2H-indazole-7-carboxamide] |  | […] | 10 to 100 nM | significant inhibition of tumor growth | complete and sustained regression | tumor shrinkage | ~60% | strongly enhances the effect of radiation | 21.0 months | 12.9 months | 9.3 months | 14.7% | 24.8% | 11.2% | 28.3%
